The values that follow come from patent publication US7476676B2, “Methods for increasing bone formation using inhibitors of glycogen synthase kinase-3β” (Roche Palo Alto LLC, priority 2002, dated 2009).

pIC50: −log10 of the molar value. Where two headings read alike, the source gives them in different places.

Data set [1] deals with T1, truncated form of recombinant rabbit GSK-3β enzyme (Oryctolagus cuniculus, UniProt G1T8E2).
T1 construct: The construct was cloned in pGEX-3X vector; fused on or other part: GST at the N-terminus (pGEX-3X vector, purified on glutathione sepharose 4B)
Kind of data set: Inhibition of Glycogen Synthase Kinase-3β in vitro assay. Type of data set: biochemical.
Method: The in vitro GSK-3β inhibitory activity of compounds of this invention was determined with a truncated form of recombinant rabbit GSK-3β enzyme.
The construct was cloned in pGEX-3X vector according to the procedure described in Wang, Q. M. et al., J. Biol. Chem. 269, 14566-14574 (1994). Ten amino acids at the N-terminus were deleted to obtain constitutively active GSK-3β ((see Murai H. et al., FEBS Lett. 392,153-60, (1996)). GSK-3β was expressed in BL21 DE3 cells. The cells were grown at 37° C. until they reached mid log phase and then induced with isopropyl-beta-(D)-thiogalactopyranoside (final concentration 0.4 mM) at 30° C. for 2 h. The cells were homogenized and the cell extract was loaded on a glutathione sepharose 4B column. GSK-3β was eluted with glutathione buffer (50 mM Tris pH 8 and 10 mM reduced glutathione). The eluate was collected in 3 minute fractions and assayed for GSK-3β content on a 10% SDS PAGE (polyacrylamide gel electrophoresis). Fractions above 20% peak height were pooled, aliquoted, and stored at −80° C. until used.
ATP (1 μCi), and 2 μl of compounds of this invention in DMSO (various concentrations). 15 μl of GSK-3β (various concentrations) was added and the reaction mixture was incubated at 30° C. for 1 h. The reaction was stopped by transferring 25 μl of the reaction mixture to a phosphocellulose plate containing 130 μl of 1.85% phosphoric acid. The free radionucleotides in the membrane were washed off under vacuum with 1.85% phosphoric acid (5 times). After the last wash, the plate was transferred to an adoptor plate and 50 μl of scintillation cocktail (Microscint-20, Packard, cat. #20-133) was added to each well and the amount of radioactivity was counted in a top counter.

Data set [2] relates to Ovalbumin-sensitized Brown-Norway rats. Kind of data set: Study GSK8 - bone formation in rats treated with Compound II-3. Type of data set: in vivo, rat. Particulars: twice daily oral gavage Days 6-8 and 13-23, liposome formulation. As for the experimental part: Ovalbumin-sensitized Brown-Norway rats were used. They were sensitized i.p. with 100 μg of OA (ovalbumin) in 0.2 ml alum once every week for three weeks (Day 0, 7 and 14). Seven days after the final sensitization (Day 21), rats were challenged with 1% OA for 45 minutes and euthanized 72 hrs later (day 24). Compound II-3 was given twice daily by oral gavage on Days 6-8 and Days 13-23. Compound was prepared as a liposome formulation—8 mg/ml liposome solution in a liposome composition of 1.44 grams of compound and 54 grams of L-alpha-phosphatidylcholine in 160 ml of sterile water for injection.
Femur samples were decalcified in 10% formic acid, embedded in paraffin, sectioned at five micron thickness and stained with hematoxylin and eosin.

Another data set has as its system Male Wistar rats. Kind of data set: Study MT021 - bone formation in rats with Compound II-9. It is filed as in vivo, rat. As for the experimental part: Compound was formulated as a solution in 10% w/v Solutol. Male Wistar rats were dosed by oral gavage, once per day for 14 days at 25, 75 or 150 mg/kg/day and compared to vehicle control (10% Solutol, 10 ml/kg/day). Complete necroscopies were done and the tissues preserved in 10% formalin. Femur, sternum and vertabra were processed and analyzed as described in Example 3.

In a further data set the test system is osteopenic rat model. Put plainly: Bone anabolism in the rat (osteopenic rat model; bone mineral density, serum and urine calcium). It is filed as in vivo. Here is the method: . Three month old rats are ovariectomized (Ovx) and administered either bovine parathyroid hormone (Amino Acids^1-34) (bPTH in Table) or one of the compounds of the present invention once a day by mouth starting at least 4 weeks post-ovariectomy and continuing until final sacrifice after 3 weeks of daily treatment. Control groups, both sham (rats that were not ovariectomized) and Ovx, received vehicle only. Bovine parathyroid hormone, bPTH, was tested at 40 ug/kg (optimal dose) as an internal positive control for anabolic activity. […] Blood and urine samples were collected at 2-3 weeks after initiation of treatment and the amount of calcium in the serum and urine was determined.
The bone mineral density of the right femur was determined using the High Resolution Software on a QDR-4500W Bone Densitometer™ (Hologic, Waltham, Mass.). The animals were scanned by placing them on a plexiglass block in a supine position such that the right leg was perpendicular to the main body and the tibia was perpendicular to the femur. The increase in the bone mineral density and the amount of calcium in the urine and the serum for the compounds are given in the table below.

The mark [3] stands for this setting: Ovx rats, 30 mg/kg/day by mouth.
Setting [4] is: Sham (intact) rats, 30 mg/kg/day by mouth.
Where [5] appears, read: Ovx rats, 0.04 mg/kg/day, Compound X study.
Setting [6] is: Ovx rats, 0.04 mg/kg/day, III-2 Ovx study.
Setting [7] is: Sham (intact) rats, 0.04 mg/kg/day.

T1 sequence (G1T8E2 1-432): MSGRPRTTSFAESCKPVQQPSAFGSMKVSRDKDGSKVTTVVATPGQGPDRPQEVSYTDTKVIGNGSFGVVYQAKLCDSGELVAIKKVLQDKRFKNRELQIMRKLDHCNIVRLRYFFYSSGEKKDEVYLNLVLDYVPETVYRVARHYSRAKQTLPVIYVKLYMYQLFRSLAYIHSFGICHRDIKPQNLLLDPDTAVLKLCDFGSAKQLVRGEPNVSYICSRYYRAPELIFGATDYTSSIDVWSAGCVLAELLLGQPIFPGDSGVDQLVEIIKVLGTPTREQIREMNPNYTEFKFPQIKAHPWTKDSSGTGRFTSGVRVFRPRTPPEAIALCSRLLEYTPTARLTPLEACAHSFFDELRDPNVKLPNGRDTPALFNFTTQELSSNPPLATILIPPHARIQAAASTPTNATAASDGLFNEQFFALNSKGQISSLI

Usually melting point stands for the temperature of the solid-liquid transition. For `Cn1cc(C2=C(c3cccc(NCCCO[Si](C)(C)C(C)(C)C)c3)C(=O)NC2=O)c2ccccc21`, the melting point fell in the range of 58 to 65 °C.
Still for that read-out and setting: for `Cn1cc(C2=C(c3ccccc3OCC(O)CO)C(=O)NC2=O)c2ccccc21` (stereo not shown) [Compound I-1] the value was 245 to 247.1 °C.
As usually defined, the pIC50 is −log10 of the IC50, conventionally taken in molar units. For the compound `Nc1nc(NCCNc2ncc(-c3ncc[nH]3)c(-c3ccc(Cl)cc3Cl)n2)ccc1[N+](=O)[O-]` [Compound X, N^6-{2-[4-(2,4-dichloro-phenyl)-5-(1H-imidazol-2-yl)-pyrimidin-2-ylamino]-ethyl}-3-nitro-pyridine-2,6-diamine, reference compound], the negative-log IC50 (pIC50) in data set [1] (GSK-3β assay of Biological Example 1) was 8.77.
`Cn1cc(C2=C(c3cccc(OC[C@H](O)CO)c3)C(=O)NC2=O)c2ccccc21` [II-3]: the melting point was in the range of 177.7 to 178 °C. Moreover, the pIC50 in data set [1] is 8.49. In addition, the “cancellous bone under the growth plate of the femur (light microscopy)” value in data set [2] is reported as “moderate increases in cancellous bone”.
With `Cn1cc(C2=C(c3cccc(OCCN4CCOCC4)c3)C(=O)NC2=O)c2ccccc21` [II-4], the melting point lay in the range of 197.7 to 199 °C.
With `Cl.Cn1cc(C2=C(c3cccc(NCC(O)CO)c3)C(=O)NC2=O)c2ccccc21` (stereo not shown) [II-9], the melting point fell in the range of 160 to 163.5 °C. For the same compound, the pIC50 in data set [1] was 8.82. Besides, the “animals with increased cancellous bone” value in the data set with Male Wistar rats (25 mg/kg group, oral, 14 days) was “only one animal”. In the data set on Male Wistar rats (150 mg/kg group, oral, 14 days), the “rats with increased new bone formation” value is reported as “Five out of six”. Also, the “cancellous bone (femur, sternum, vertebra)” value with Male Wistar rats (oral gavage once per day for 14 days at 25, 75 or 150 mg/kg/day) was “Increased cancellous bone was observed in all groups”.
For the compound `Cl.Cn1cc(C2=C(c3cccc(NCC(O)CO)c3)C(=O)NC2=O)c2cc(F)ccc21` (stereo not shown) [III-2], in the data set on osteopenic rat model (setting [3]), the “LUMBAR SPINE % 3 wk BMD Change” value is reported as 7.9 ± 1.8% and the “WHOLE FEMUR % 3 wk BMD Change” value is reported as 11.6 ± 0.9%. In the data set with osteopenic rat model (setting [4]), the “LUMBAR SPINE % 3 wk BMD Change” value came to 9.5 ± 1.8% and the “WHOLE FEMUR % 3 wk BMD Change” value worked out at 13.1 ± 1.3%.
“bPTH: bovine parathyroid hormone (Amino Acids 1-34), internal positive control for anabolic activity”: the “LUMBAR SPINE % 3 wk BMD Change” value in the data set with osteopenic rat model (setting [5]) is recorded as 8.6 ± 1.8%; with osteopenic rat model (setting [6]) it was 12.2 ± 1.5%; in the data set on osteopenic rat model (setting [7]), 15.7 ± 0.8%. The “WHOLE FEMUR % 3 wk BMD Change” value is recorded as 7.0 ± 1.1% in the data set on osteopenic rat model (setting [5]), 16.6 ± 0.9% in the data set with osteopenic rat model (setting [6]) and 11.7 ± 1.0% with osteopenic rat model (setting [7]).
